From patent US20230312478A1, “HERBICIDAL COMPOUNDS” (SYNGENTA CROP PROTECTION AG, priority 2020, published 2023)

Legend:
Format in all cases: in vivo
Settings in all cases: 250 g/ha, evaluated visually after 13 days, scale 0-5
[1] = test system: Ipomoea hederacea (IPOHE); assay: Herbicidal efficacy, application post-emergence
Protocol: (§1) Seeds of a variety of test species [Ipomoea hederacea (IPOHE); Zea mays (ZEAMX); Echinochloa crus-galli (ECHCG); Setaria faberi (SETFA); Abutilon theophrasti (ABUTH); Amaranthus retroflexus (AMARE)] were sown in standard sterilised soil in pots. After cultivation for one day (pre-emergence) or after 8 days cultivation (post-emergence) under controlled conditions in a glasshouse (at 24/16° C., day/night; 14 hours light; 65 % humidity), the plants were sprayed with an aqueous spray solution derived from the formulation of the technical active ingredient in acetone / water (50:50) solution containing 0.5% Tween 20 (polyoxyethelyene sorbitan monolaurate, CAS RN 9005-64-5), subsequently diluted in water, and sprayed to give the stated application rate.
(§2) The test plants were then grown under controlled conditions in a glasshouse (at 24/16° C., day/night; 14 hours light; 65 % humidity) and watered twice daily.
(§3) After 13 days for pre- and post-emergence, the test was evaluated visually for percentage phytotoxicity to the plant (where 5 = total damage to plant; 0 = no damage to plant).

Zea mays (ZEAMX) [2] = assay: Herbicidal efficacy, application post-emergence
Protocol: as §1, §2, §3

Setaria faberi (SETFA) [3] = assay: Herbicidal efficacy, application post-emergence
Protocol: as §1, §2, §3

[4] = test system: Echinochloa crus-galli (ECHCG); assay: Herbicidal efficacy, application post-emergence
Protocol: as §1, §2, §3

[5] = test system: Amaranthus retroflexus (AMARE); assay: Herbicidal efficacy, application post-emergence
Protocol: as §1, §2, §3

[6] = test system: Ipomoea hederacea (IPOHE); assay: Herbicidal efficacy, application pre-emergence; design: key: 5 = total damage to plant; 0 = no damage to plant
Protocol: as §1, §2, §3

Setaria faberi (SETFA) [7] = assay: Herbicidal efficacy, application pre-emergence; design: key: 5 = total damage to plant; 0 = no damage to plant
Protocol: as §1, §2, §3

[8] = test system: Abutilon theophrasti (ABUTH); assay: Herbicidal efficacy, application pre-emergence; design: key: 5 = total damage to plant; 0 = no damage to plant
Protocol: as §1, §2, §3

[9] = test system: Echinochloa crus-galli (ECHCG); assay: Herbicidal efficacy, application pre-emergence; design: key: 5 = total damage to plant; 0 = no damage to plant
Protocol: as §1, §2, §3

[10] = test system: Amaranthus retroflexus (AMARE); assay: Herbicidal efficacy, application pre-emergence; design: key: 5 = total damage to plant; 0 = no damage to plant
Protocol: as §1, §2, §3

Zea mays (ZEAMX) [11] = assay: Herbicidal efficacy, application pre-emergence
Protocol: as §1, §2, §3

[12] = test system: Abutilon theophrasti (ABUTH); assay: Herbicidal efficacy, application post-emergence; design: key: 5 = total damage to plant; 0 = no damage to plant
Protocol: as §1, §2, §3

Cc1cc(C2CN(C)C(=S)C2C(=O)Nc2ccc(F)nc2F)nn1C(F)F (stereo not drawn) [Compound 85, 4-[1-(difluoromethyl)-5-methyl-pyrazol-3-yl]-N-(2,6-difluoro-3-pyridyl)-1-methyl-2-thioxo-pyrrolidine-3-carboxamide]
phytotoxicity to the plant, IPOHE [1]: 1
phytotoxicity to the plant, ZEAMX (Zea mays (ZEAMX) [2]): 1
phytotoxicity to the plant, SETFA (Setaria faberi (SETFA) [3]): 2
phytotoxicity to the plant, ECHCG [4]: 4
phytotoxicity to the plant, AMARE [5]: 1
phytotoxicity to the plant, IPOHE [6]: 0
phytotoxicity to the plant, SETFA (Setaria faberi (SETFA) [7]): 4
phytotoxicity to the plant, ABUTH [8]: 0
phytotoxicity to the plant, ECHCG [9]: 4
phytotoxicity to the plant, AMARE [10]: 0
phytotoxicity to the plant, ZEAMX (Zea mays (ZEAMX) [11]): 1
phytotoxicity to the plant, ABUTH [12]: 0

Cc1c(F)cccc1NC(=O)C1C(=O)N(C)CC1c1cc(C)n(C(F)F)n1 (stereo not drawn) [Compound 9, 4-[1-(difluoromethyl)-5-methyl-pyrazol-3-yl]-N-(3-fluoro-2-methyl-phenyl)-1-methyl-2-oxo-pyrrolidine-3-carboxamide]
phytotoxicity to the plant, IPOHE [1]: 3
phytotoxicity to the plant, ZEAMX (Zea mays (ZEAMX) [2]): 3
phytotoxicity to the plant, SETFA (Setaria faberi (SETFA) [3]): 4
phytotoxicity to the plant, ECHCG [4]: 4
phytotoxicity to the plant, AMARE [5]: 3
phytotoxicity to the plant, IPOHE [6]: 1
phytotoxicity to the plant, SETFA (Setaria faberi (SETFA) [7]): 5
phytotoxicity to the plant, ABUTH [8]: 1
phytotoxicity to the plant, ECHCG [9]: 5
phytotoxicity to the plant, AMARE [10]: 1
phytotoxicity to the plant, ZEAMX (Zea mays (ZEAMX) [11]): 3
phytotoxicity to the plant, ABUTH [12]: 0

Cc1cc(C2CN(C)C(=S)C2C(=O)Nc2ccc(F)cc2F)nn1C(F)F (stereo not drawn) [Compound 61, 4-[1-(difluoromethyl)-5-methyl-pyrazol-3-yl]-N-(2,4-difluorophenyl)-1-methyl-2-thioxo-pyrrolidine-3-carboxamide]
phytotoxicity to the plant, IPOHE [1]: 1
phytotoxicity to the plant, ZEAMX (Zea mays (ZEAMX) [2]): 2
phytotoxicity to the plant, SETFA (Setaria faberi (SETFA) [3]): 3
phytotoxicity to the plant, ECHCG [4]: 4
phytotoxicity to the plant, AMARE [5]: 1
phytotoxicity to the plant, IPOHE [6]: 0
phytotoxicity to the plant, SETFA (Setaria faberi (SETFA) [7]): 5
phytotoxicity to the plant, ABUTH [8]: 0
phytotoxicity to the plant, ECHCG [9]: 5
phytotoxicity to the plant, AMARE [10]: 2
phytotoxicity to the plant, ZEAMX (Zea mays (ZEAMX) [11]): 1
phytotoxicity to the plant, ABUTH [12]: 0

Cc1c(Br)c(C2CN(C)C(=O)C2C(=O)Nc2ccc(F)nc2F)nn1C(F)F (stereo not drawn) [Compound 83, 4-[4-bromo-1-(difluoromethyl)-5-methyl-pyrazol-3-yl]-N-(2,6-difluoro-3-pyridyl)-1-methyl-2-oxo-pyrrolidine-3-carboxamide]
phytotoxicity to the plant, IPOHE [1]: 1
phytotoxicity to the plant, ZEAMX (Zea mays (ZEAMX) [2]): 4
phytotoxicity to the plant, SETFA (Setaria faberi (SETFA) [3]): 3
phytotoxicity to the plant, ECHCG [4]: 4
phytotoxicity to the plant, AMARE [5]: 1
phytotoxicity to the plant, IPOHE [6]: 0
phytotoxicity to the plant, SETFA (Setaria faberi (SETFA) [7]): 5
phytotoxicity to the plant, ABUTH [8]: 0
phytotoxicity to the plant, ECHCG [9]: 5
phytotoxicity to the plant, AMARE [10]: 0
phytotoxicity to the plant, ZEAMX (Zea mays (ZEAMX) [11]): 1
phytotoxicity to the plant, ABUTH [12]: 1

CCc1cc(C2CN(C)C(=O)C2C(=O)Nc2ccc(F)cc2F)nn1C(F)F (stereo not drawn) [Compound 58, 4-[1-(difluoromethyl)-5-ethyl-pyrazol-3-yl]-N-(2,4-difluorophenyl)-1-methyl-2-oxo-pyrrolidine-3-carboxamide]
phytotoxicity to the plant, IPOHE [1]: 3
phytotoxicity to the plant, ZEAMX (Zea mays (ZEAMX) [2]): 2
phytotoxicity to the plant, SETFA (Setaria faberi (SETFA) [3]): 4
phytotoxicity to the plant, ECHCG [4]: 4
phytotoxicity to the plant, AMARE [5]: 1
phytotoxicity to the plant, IPOHE [6]: 1
phytotoxicity to the plant, SETFA (Setaria faberi (SETFA) [7]): 5
phytotoxicity to the plant, ABUTH [8]: 0
phytotoxicity to the plant, ECHCG [9]: 5
phytotoxicity to the plant, AMARE [10]: 0
phytotoxicity to the plant, ZEAMX (Zea mays (ZEAMX) [11]): 3
phytotoxicity to the plant, ABUTH [12]: 0
